“Also recorded” adds a separate entry of the source. Counter-ions that a name gives are not always drawn.
Legend:
rats = experiment: formalin test in rats; type: in vivo
From the text: The analgesic effects of the extracts of this invention were studied using the formalin test (Dubuisson, D., Dennis, S. G., “The formalin test: a quantitative study of the analgesic effects of morphine, meperidine, and brainstem stimulation in rats and cats,” Pain, 1977, 4, pp. 161-164), a commonly used animal model to study nociceptive processes and analgesic drug effects.
Male Holtzman rats weighing 150-175 g were obtained from Harlan Spraque Dawley (Indianapolis, Ind.) and housed under a 12:12 h light/dark cycle in individual stainless steel cages in a temperature and humidity controlled vivarium. Food and water were available ad libitum. In session one, the animals were allowed to acclimate to the colony room for two days and handled for an additional two days prior to conducting the experiment in order to reduce experimenter-related stress. In session two, animals were allowed to acclimate to the colony room for four days, handled for three days, and acclimated to the apparatus for two days prior to conducting the experiment in order to reduce experimenter-related stress. In both sessions, the animals were food-deprived for 12 h before administering the test articles.
A Plexiglas viewing chamber (30×30×30 cm) was used for data collection.
Naproxen was used as a reference. Samples were tested at a concentration of 100 mg/kg except Formulation J which was tested at 200 mg/kg.
In session one, 10 minutes before the formalin observation period, the formulations were delivered via gavage in a volume of 0.5 ml to obtain a minimum response interval of 30 min between the injection time and the second phase of the formalin response. In session two, formulations were delivered via gavage of 1 ml. Each animal received two formulation dosings before the tests: 70 and 10 minutes before the beginning of the formalin observation period in order to obtain a 90 and 30 min injection intervals before the second phase of the formalin response.
Immediately after administration of 0.05 ml of 2.5% formalin into the hindpaw, rats were placed into 30×30×30 cm Plexiglas observation chamber. The observation session lasted 50 min. A dependent measure was the amount of time in which the injected paw was 1) in a lift position and 2) licked, bitten or shaken across ten 5-min blocks. A composite pain score as a function of ten 5-min blocks was calculated according to the procedures of Watson et al. (Watson, G. S., Sufka, K. J., Coderre, T. J., “Optimal scoring strategies and weights for the formalin test in rats,” Pain, 1997, 70, pp. 53-58). Sample sizes were n=5-6 rats per group. […]
Data were screened for homogeneity of variance and analyzed using repeated measures analysis of variance (ANOVA) and Fisher's LSD procedures.

chicks = details: previous research with this chick model (Watson et al., 1996, 1999); cited from earlier work

COc1ccc2cc3[n+](cc2c1OC)CCc1cc2c(cc1-3)OCO2 [Formulation K, berberine HCl]
effect on formalin-induced pain behaviors (CPS), in words (rats; session 1, 100 mg/kg by gavage 10 min before observation, HCl, 100 mg/kg): attenuated pain-related behaviors during the second phase; also recorded: reduced pain during the fourth to the tenth time block

COc1ccc2cc([C@H](C)C(=O)O)ccc2c1 [Naproxen]
effect on formalin-induced pain behaviors (CPS), in words (rats; session 1, 100 mg/kg by gavage 10 min before observation, 100 mg/kg): did not affect pain behaviors
effect on formalin-induced pain behaviors (CPS), in words (rats; session 1, 100 mg/kg by gavage 10 min before observation, listed as naproxen, 100 mg/kg): had no effect on pain
effect on formalin-induced pain behaviors (CPS), in words (rats; session 2, two gavage dosings 70 and 10 min before observation, Naproxen 100 mg, Formulation J 200 mg/kg, b186 prints 100 mg/kg): attenuated the second phase of the formalin response

Cc1nnc2n1-c1ccc(Cl)cc1C(c1ccccc1)=NC2 [alprazolam]
ED50 in attenuating separation-induced DVoc (chicks): 0.19 mg/kg

CNC1=Nc2ccc(Cl)cc2C(c2ccccc2)=[N+]([O-])C1 [chlorodiazepoxide, chlordiazepoxide]
ED50 in attenuating separation-induced DVoc (chicks): 3.75 mg/kg

O=C1Nc2ccc(Cl)cc2C(c2ccccc2Cl)=NC1O (stereo not shown) [lorazepam]
ED50 in attenuating separation-induced DVoc (chicks): 0.34 mg/kg

— patent US20030215531A1, “Compositions and methods of use for extracts of Rutaceae plants” (priority 2000, published 2003)
